pEC50, pIC50: −log10 of the molar value.
How the values were obtained:
Hepatitis C virus [1] = assay: Antiviral activity against HCV genotype 1b Con1 expressing NS3 protease infected in human Huh7.5 cells assessed as reduction in viral RNA replication by luciferase reporter gene assay; format: functional, cell-based, Hepacivirus hominis; conditions: genotype 1b Con1, Huh-7
[2] = Inhibition of recombinant full length HCV genotype 3a S52 NS3/4A protease preincubated for 30 mins followed by substrate addition measured by FRET assay; design: species or system Hepatitis C virus S52
[3] = Half life in cannulated Sprague-Dawley rat plasma at 5 mg/kg, iv administered as 10 mins infusion by LC/MS/MS analysis; format: ADME, organism-based
[4] = Oral bioavailability in cannulated Sprague-Dawley rat plasma at 15 mg/kg administered via gavage measured up to 24 hrs post dose by LC/MS/MS analysis; format: ADME, organism-based
[5] = AUC in cannulated Sprague-Dawley rat plasma at 15 mg/kg administered via oral gavage measured up to 24 hrs post dose by LC/MS/MS analysis; format: ADME, organism-based; design: dose 15 mg/kg, time < 24 hr, route oral
[6] = Drug uptake in cannulated Sprague-Dawley rat liver at 15 mg/kg administered via oral gavage measured at 24 hrs post dose by LC/MS/MS analysis; format: ADME, organism-based; conditions: read-out: Drug uptake
[7] = Half life in Beagle dog plasma at 1 mg/kg, iv administered as 5 mins infusion by LC/MS/MS analysis; format: ADME, organism-based, Canis lupus familiaris
[8] = Clearance in Beagle dog plasma at 1 mg/kg, iv administered as 5 mins infusion measured up to 24 hrs post dose by LC/MS/MS analysis; format: ADME, organism-based, Canis lupus familiaris
[9] = Oral bioavailability in Beagle dog plasma at 3 mg/kg administered via gavage measured up to 24 hrs post dose by LC/MS/MS analysis; format: ADME, organism-based, Canis lupus familiaris; conditions: beagle, plasma
[10] = AUC in Beagle dog plasma at 3 mg/kg administered via oral gavage measured up to 24 hrs post dose by LC/MS/MS analysis; format: ADME, organism-based, Canis lupus familiaris; design: dose 3 mg/kg, time < 24 hr, route oral
[11] = Cardiotoxicity in rabbit heart assessed as change in heart rate at 10 uM perfused for 20 mins measured for 1 min by electrophysiology method relative to control; format: toxicity, tissue-based, Oryctolagus cuniculus
[12] = Oral bioavailability in cynomolgus monkey plasma at 10 mg/kg administered via gavage measured up to 24 hrs post dose by LC/MS/MS analysis; format: ADME, organism-based, Macaca fascicularis; conditions: plasma
[13] = AUC in cynomolgus monkey plasma at 10 mg/kg administered via oral gavage measured up to 24 hrs post dose by LC/MS/MS analysis; format: ADME, organism-based, Macaca fascicularis; design: dose 10 mg/kg, time < 24 hr, route oral; conditions: plasma
[14] = Cardiotoxicity in rabbit heart assessed as change in heart rate at 10 uM perfused for 60 mins measured every 10 mins during perfusion by electrophysiology method relative to control; format: toxicity, tissue-based, Oryctolagus cuniculus; conditions: 1 h
[15] = Cardiotoxicity in rabbit heart assessed as change in sinoatrial node recovery time at 10 uM perfused for 20 mins measured for 1 min by electrophysiology method relative to control; format: toxicity, tissue-based, Oryctolagus cuniculus
[16] = Cytotoxicity against human HepG2 cells assessed as decrease in cell viability
[17] = Cytotoxicity against human HuH7 cells assessed as decrease in cell viability
[18] = Cytotoxicity against human HeLa cells assessed as decrease in cell viability
[19] = Cytotoxicity against human MRC5 cells assessed as decrease in cell viability
Salmonella typhimurium [20] = assay: Genotoxicity in Salmonella typhimurium in presence of S9 fraction by Ames test; format: toxicity, organism-based; conditions: salmonella enterica subsp. enterica serovar typhimurium
Rattus norvegicus = assay: Toxicity in rat at 30 to 300 mg/kg administered as single dose; format: organism-based; conditions: in vivo
[21] = Toxicity in dog at 20 to 200 mg/kg administered as single dose; format: organism-based, Canis lupus familiaris; conditions: in vivo
Salmonella typhimurium [22] = assay: Genotoxicity in Salmonella typhimurium in absence of S9 fraction by Ames test; format: toxicity, organism-based; conditions: salmonella enterica subsp. enterica serovar typhimurium
Homo sapiens = species on record: Homo sapiens; assay: Inhibition of sodium channel (unknown origin) at 10 uM at 4 Hz by patch clamp assay
[23] = Toxicity in cynomolgus monkey assessed as gastrointestinal irritation at 10 mg/kg, po administered through gavage; format: organism-based, Macaca fascicularis; conditions: in vivo
[24] = Inhibition of recombinant full length HCV genotype 2b HC-J8 NS3 protease in genotype 2a replicon cells by luciferase reporter gene assay; format: cell-based, Hepatitis C virus subtype 2b; conditions: Hepatitis C virus
[25] = Cardiotoxicity in anesthetized rabbit assessed as effect on QRS interval at 30 mg/kg, iv administered as 10 mins infusion measured up to 60 mins post dose by electrophysiology assay; format: toxicity, organism-based, Oryctolagus cuniculus; conditions: in vivo
[26] = Cardiotoxicity in anesthetized rabbit assessed as prolongation of QTcf interval at 30 mg/kg, iv administered as 10 mins infusion by electrophysiology assay; format: toxicity, organism-based, Oryctolagus cuniculus; conditions: in vivo
[27] = Cardiotoxicity in anesthetized rabbit assessed as prolongation of QTcv interval at 30 mg/kg, iv administered as 10 mins infusion by electrophysiology assay; format: toxicity, organism-based, Oryctolagus cuniculus; conditions: in vivo
[28] = Cardiotoxicity in dog assessed as prolongation of QTcv interval at 30 to 100 mg/kg administered as single dose by electrophysiology assay; format: toxicity, organism-based, Canis lupus familiaris; conditions: in vivo
[29] = Cardiotoxicity in dog assessed as effect on heart rate at 30 to 100 mg/kg administered as single dose by electrophysiology assay; format: toxicity, organism-based, Canis lupus familiaris; conditions: in vivo
[30] = Cardiotoxicity in dog assessed as effect on sinoatrial node recovery time at 30 to 100 mg/kg administered as single dose by electrophysiology assay; format: toxicity, organism-based, Canis lupus familiaris; conditions: in vivo
[31] = Inhibition of recombinant full length HCV genotype 1b J4L6S NS3/4A protease preincubated for 30 mins followed by substrate addition measured by FRET assay; design: species or system Hepatitis C virus subtype 1b
[32] = Inhibition of recombinant full length HCV genotype 2a HC-J6 NS3/4A protease preincubated for 30 mins followed by substrate addition measured by FRET assay; design: species or system Hepatitis C virus subtype 2a
[33] = Inhibition of recombinant full length HCV genotype 5a SA13 NS3/4A protease preincubated for 30 mins followed by substrate addition measured by FRET assay; design: species or system Hepatitis C virus SA13
[34] = Inhibition of recombinant full length HCV genotype 6a HK-6A NS3/4A protease preincubated for 30 mins followed by substrate addition measured by FRET assay; design: species or system Hepatitis C virus subtype 6a
[35] = Inhibition of recombinant full length HCV genotype 4a ED43 NS3 protease in genotype 1b con1 replicon cells by luciferase reporter gene assay; conditions: Hepatitis C virus
[36] = Inhibition of recombinant full length HCV genotype 3a S52 NS3 protease in genotype 2a replicon cells by luciferase reporter gene assay; format: cell-based; conditions: Hepatitis C virus
Hepatitis C virus [37] = assay: Antiviral activity against HCV genotype 1a H77 in HCV replicon cells assessed as reduction in viral RNA replication by luciferase reporter gene assay
Genome polyprotein = Genome polyprotein (GB virus-B, UniProt Q69422); assay: Inhibition of GBV-B NS3 protease
Neutrophil elastase = target: T1, Neutrophil elastase (Homo sapiens, UniProt P08246); assay: Inhibition of human leukocyte elastase
T1 sequence (P08246 whole entry): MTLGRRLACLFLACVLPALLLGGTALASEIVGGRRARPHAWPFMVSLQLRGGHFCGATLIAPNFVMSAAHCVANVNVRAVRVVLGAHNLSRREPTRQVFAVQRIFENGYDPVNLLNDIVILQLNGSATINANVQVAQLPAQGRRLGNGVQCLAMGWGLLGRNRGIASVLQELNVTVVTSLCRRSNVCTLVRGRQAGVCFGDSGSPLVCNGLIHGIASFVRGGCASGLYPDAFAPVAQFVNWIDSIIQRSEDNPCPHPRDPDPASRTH

[38] = Drug uptake in rabbit heart atrium measured after 60 mins; format: ADME, Oryctolagus cuniculus, Cardiac atrium; conditions: read-out: Drug uptake

Sequence of Genome polyprotein (Q69422 941-1564 limits assumed): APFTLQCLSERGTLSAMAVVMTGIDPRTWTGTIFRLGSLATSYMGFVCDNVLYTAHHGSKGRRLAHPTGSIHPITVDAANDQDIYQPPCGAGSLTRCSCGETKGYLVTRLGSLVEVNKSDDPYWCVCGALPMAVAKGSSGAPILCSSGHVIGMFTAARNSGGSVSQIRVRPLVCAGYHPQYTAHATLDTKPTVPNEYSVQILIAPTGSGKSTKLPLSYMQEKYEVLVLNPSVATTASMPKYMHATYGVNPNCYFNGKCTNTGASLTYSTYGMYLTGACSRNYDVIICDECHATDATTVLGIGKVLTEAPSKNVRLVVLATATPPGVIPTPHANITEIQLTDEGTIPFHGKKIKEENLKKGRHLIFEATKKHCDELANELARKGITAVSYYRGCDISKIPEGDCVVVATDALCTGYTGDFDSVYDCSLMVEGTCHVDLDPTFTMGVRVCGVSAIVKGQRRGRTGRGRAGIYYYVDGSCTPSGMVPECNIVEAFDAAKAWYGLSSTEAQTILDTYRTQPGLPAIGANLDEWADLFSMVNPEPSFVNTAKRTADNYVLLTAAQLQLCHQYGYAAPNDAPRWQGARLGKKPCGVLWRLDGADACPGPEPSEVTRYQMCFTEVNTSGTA

- pEC50 (Hepatitis C virus [1]): 8.35
- pIC50 [2]: 5.85
- half-life [3]: 8.6 h
- bioavailability [4]: 86.4%
- AUC at 24 h [5]: 21.1 µM·h
- concentration at 24 h [6]: 51 µM
- half-life [7]: 5.1 h
- clearance [8]: 4.3 mL/min/kg
- bioavailability [9]: 57.5%
- AUC at 24 h [10]: 8.3 µM·h
- bioavailability [12]: 15.4%
- AUC at 24 h [13]: 4.4 µM·h
- inhibition (Homo sapiens): 46.4%
- pEC50 [24]: 6.25
- pIC50 [31]: 8.80
- pIC50 [32]: 7.42
- pIC50 [33]: 8.39
- pIC50 [34]: 8.47
- pEC50 [35]: 8.55
- pEC50 [36]: 5.78
- pEC50 (Hepatitis C virus [37]): 8.35
- pIC50 (Genome polyprotein): < 4.60
- pIC50 (Neutrophil elastase): 4.68
- concentration at 1 h [38]: 204 µM
SMILES: COc1cnc(O[C@@H]2C[C@@H](C(=O)N[C@]3(C(=O)NS(=O)(=O)C4CC4)C[C@H]3C3CC3)N(C(=O)[C@@H](NC(=O)O[C@H](C)C(F)(F)F)C3CCCCC3)C2)c2cc(Cl)ccc12
- Activity [11]: -11%
- Activity [14]: -16%
- Activity [15]: -3%
- CC50 [16]: 8000 to 14000 nM
- CC50 [17]: 8000 to 14000 nM
- CC50 [18]: 8000 to 14000 nM
- CC50 [19]: 8000 to 14000 nM
- Activity (Salmonella typhimurium [20]): Non-Toxic
- Activity (Rattus norvegicus): Non-Toxic
- Activity [21]: Non-Toxic
- Activity (Salmonella typhimurium [22]): Non-Toxic
- Activity [23]: Non-Toxic
- Activity [25]: Non-Toxic
- Activity [26]: Toxic
- Activity [27]: Non-Toxic
- Activity [28]: Non-Toxic
- Activity [29]: Non-Toxic
- Activity [30]: Non-Toxic

Reference: ChEMBL document CHEMBL3861981 (J Med Chem, 2016)
